Several values for one entry are separate records, joined by “and”; a condition that tells them apart may be missing. Identical values can stand only once. Inconclusive results and toxic doses are left out.
Tested on: nude mice, LOX melanoma ip, survival T/C
Assay: NCI In Vivo Anticancer Drug Screen. Data for tumor model Human Amelanotic Melanoma (LOX) (intraperitoneal) in NU/NU BALB/C (nude) mice
Conditions: endpoint: median survival time, schedule: Q04DX003 (ip), higher = longer survival
Protocol: The antitumor activity of compounds was measured in mice bearing transplantable tumors. Survival or tumor size were measured and the results are expressed as the measurement made in the treated group (T) divided by the measurement made in the vehicle treated control group (C). The tumor model used in this assay is Human Amelanotic Melanoma (LOX) (intraperitoneal) in NU/NU BALB/C (nude) mice

[1] = dose: 18.75 mg/kg/injection, vehicle: Klucel (hydroxypropylcellulose) (HPC)
[2] = dose: 37.5 mg/kg/injection, vehicle: Klucel (hydroxypropylcellulose) (HPC)
[3] = dose: 300.0 mg/kg/injection, vehicle: Klucel (hydroxypropylcellulose) (HPC)
[4] = dose: 37.5 mg/kg/injection, vehicle: saline with Tween-80
[5] = dose: 150.0 mg/kg/injection, vehicle: saline with Tween-80
[6] = dose: 75.0 mg/kg/injection, vehicle: water
[7] = dose: 150.0 mg/kg/injection, vehicle: water
[8] = dose: 75.0 mg/kg/injection, vehicle: saline with Tween-80
[9] = dose: 300.0 mg/kg/injection, vehicle: saline with Tween-80
[10] = dose: 75.0 mg/kg/injection, vehicle: Klucel (hydroxypropylcellulose) (HPC)
[11] = dose: 150.0 mg/kg/injection, vehicle: Klucel (hydroxypropylcellulose) (HPC)
[12] = dose: 600.0 mg/kg/injection, vehicle: Klucel (hydroxypropylcellulose) (HPC)
[13] = dose: 1200.0 mg/kg/injection, vehicle: Klucel (hydroxypropylcellulose) (HPC)

## N=C(N)c1ccc(N=Nc2c(O)ccc3cc(O)ccc23)cc1
[1]
  T/C: 92 % of control
[2]
  T/C: 102 % of control
[3]
  T/C: 95 % of control

## CCCCCCNc1nc(NCCCCCC)c2[nH]c(NCCCCCC)nc2n1
[4]
  T/C: 123 % of control
[5]
  T/C: 122 % of control

## COC(=O)NC1C(C)OC(OC2C/C=C(/C)C3C=CC4C(OC5CC(OC6CC(OC7CC(O)C(O)C(C)O7)C(OC7CC(O)C(OC)C(C)O7)C(C)O6)C(O)C(C)O5)C(C)CC(C)C4C3(C)/C(O)=C3\C(=O)OC4(CC(C)C(CO)=CC4/C=C\2C)C3=O)CC1(C)[N+](=O)[O-] (stereo unspecified)
[6]
  T/C: 93 % of control
[7]
  T/C: 120 % of control

## CN(C)/N=N/c1nc[nH]c1C(N)=O
dose: 100.0 mg/kg/injection, vehicle: Klucel (hydroxypropylcellulose) (HPC)
  T/C: 107 % of control

## COc1cccc(Sc2ccc([N+](=O)[O-])c3no[n+]([O-])c23)c1
[4]
  T/C: 101 % of control
[8]
  T/C: 120 % of control
[5]
  T/C: 89 % of control
[9]
  T/C: 101 % of control

## COc1cc(C(=O)N/N=C/c2cccc([N+](=O)[O-])c2)cc(OC)c1OC
[4]
  T/C: 98 % of control
[8]
  T/C: 101 % of control and 96 % of control
[5]
  T/C: 104 % of control and 105 % of control
[9]
  T/C: 98 % of control
dose: 600.0 mg/kg/injection, vehicle: saline with Tween-80
  T/C: 105 % of control and 98 % of control
dose: 1200.0 mg/kg/injection, vehicle: saline with Tween-80
  T/C: 114 % of control

## COc1cc2c(c(OC)c1OC)-c1ccc(OC)c(=O)cc1[C@@H](NC(C)=O)CC2
dose: 0.13 mg/kg/injection, vehicle: saline
  T/C: 162 % of control
dose: 0.25 mg/kg/injection, vehicle: saline
  T/C: 150 % of control and 179 % of control and 180 % of control
dose: 0.5 mg/kg/injection, vehicle: saline
  T/C: 171 % of control and 197 % of control and 220 % of control
dose: 1.0 mg/kg/injection, vehicle: saline
  T/C: 229 % of control and 232 % of control and 280 % of control
dose: 2.0 mg/kg/injection, vehicle: saline
  T/C: 189 % of control and 222 % of control and 262 % of control
dose: 4.0 mg/kg/injection, vehicle: saline
  T/C: 268 % of control

## CC(CNC(=O)C12CC3CC(CC(C3)C1)C2)NC(=O)C12CC3CC(CC(C3)C1)C2 (stereo unspecified)
dose: 25.0 mg/kg/injection, vehicle: DMSO
  T/C: 101 % of control
dose: 50.0 mg/kg/injection, vehicle: DMSO
  T/C: 107 % of control
dose: 100.0 mg/kg/injection, vehicle: DMSO
  T/C: 101 % of control
dose: 200.0 mg/kg/injection, vehicle: DMSO
  T/C: 102 % of control

## CC(O)C1(O)C(O)CC(OC2c3cc4c(c(O)c3[C@@H]3C[C@@]2(C)OC32C=c3cc[nH]c3=N2)C(=O)c2cccc(O)c2C4=O)OC1C (stereo partly specified)
dose: 3.75 mg/kg/injection, vehicle: saline with Tween-80
  T/C: 108 % of control
dose: 7.5 mg/kg/injection, vehicle: saline with Tween-80
  T/C: 112 % of control
dose: 15.0 mg/kg/injection, vehicle: saline with Tween-80
  T/C: 117 % of control
dose: 30.0 mg/kg/injection, vehicle: saline with Tween-80
  T/C: 117 % of control
dose: 60.0 mg/kg/injection, vehicle: saline with Tween-80
  T/C: 91 % of control

## [Na+]
[6]
  T/C: 104 % of control
[7]
  T/C: 95 % of control
dose: 300.0 mg/kg/injection, vehicle: water
  T/C: 108 % of control
dose: 1200.0 mg/kg/injection, vehicle: water
  T/C: 99 % of control

## COc1cc2c(c(OC)c1O)-c1ccc(OC)c(=O)cc1[C@@H](NC(=O)C(F)(F)F)CC2
dose: 2.5 mg/kg/injection, vehicle: Klucel (hydroxypropylcellulose) (HPC)
  T/C: 122 % of control

## NC(=S)N/N=C/c1cc(=O)c2cc(Cl)ccc2o1
dose: 75.0 mg/kg/injection, vehicle: other
  T/C: 107 % of control
dose: 150.0 mg/kg/injection, vehicle: other
  T/C: 101 % of control
dose: 300.0 mg/kg/injection, vehicle: other
  T/C: 100 % of control
dose: 600.0 mg/kg/injection, vehicle: other
  T/C: 105 % of control
dose: 1200.0 mg/kg/injection, vehicle: other
  T/C: 101 % of control

## CN(C)C(=O)SC1=C(c2c(Cl)cccc2Cl)C(=O)c2ccccc21
[10]
  T/C: 103 % of control and 110 % of control
[11]
  T/C: 112 % of control and 97 % of control
[3]
  T/C: 109 % of control and 92 % of control
[12]
  T/C: 110 % of control and 123 % of control
[13]
  T/C: 105 % of control

## COc1cc(C)c(C2NC(=O)c3ccccc3N2)cc1C (stereo unspecified)
[12]
  T/C: 166 % of control
[13]
  T/C: 192 % of control

## C=Cc1cc(OC)c2c(c1)c(=O)oc1c2cc(OC)c2c(O)ccc(C3OC(C)C(O)C(C)(O)C3O)c21 (stereo unspecified)
dose: 600.0 mg/kg/injection, vehicle: DMSO
  T/C: 86 % of control

## O=C(/C=C/c1ccccc1)c1ccccc(=O)c1O
dose: 6.85 mg/kg/injection, vehicle: Klucel (hydroxypropylcellulose) (HPC)
  T/C: 100 % of control
dose: 13.7 mg/kg/injection, vehicle: Klucel (hydroxypropylcellulose) (HPC)
  T/C: 97 % of control
dose: 27.5 mg/kg/injection, vehicle: Klucel (hydroxypropylcellulose) (HPC)
  T/C: 104 % of control
dose: 55.0 mg/kg/injection, vehicle: Klucel (hydroxypropylcellulose) (HPC)
  T/C: 108 % of control
dose: 110.0 mg/kg/injection, vehicle: Klucel (hydroxypropylcellulose) (HPC)
  T/C: 94 % of control

## CC[C@@]1(O)C(=O)OCc2c1cc1n(c2=O)Cc2cc3ccccc3nc2-1
dose: 5.0 mg/kg/injection, vehicle: saline with Tween-80
  T/C: 284 % of control

## N=C1CCCS1
dose: 10.0 mg/kg/injection, vehicle: saline
  T/C: 114 % of control
dose: 20.0 mg/kg/injection, vehicle: saline
  T/C: 96 % of control
dose: 40.0 mg/kg/injection, vehicle: saline
  T/C: 102 % of control
dose: 80.0 mg/kg/injection, vehicle: saline
  T/C: 113 % of control
dose: 160.0 mg/kg/injection, vehicle: saline
  T/C: 116 % of control

## O=C1c2cccc(NCCNCCO)c2C(=O)c2cccc(NCCNCCO)c21
dose: 4.69 mg/kg/injection, vehicle: suspension in saline
  T/C: 122 % of control
dose: 9.38 mg/kg/injection, vehicle: suspension in saline
  T/C: 120 % of control

## Nc1ccn([C@@H](C=O)C[C@@H](C=O)CO)c(=O)n1
dose: 18.75 mg/kg/injection, vehicle: saline
  T/C: 105 % of control
dose: 37.5 mg/kg/injection, vehicle: saline
  T/C: 107 % of control
dose: 75.0 mg/kg/injection, vehicle: saline
  T/C: 103 % of control
dose: 150.0 mg/kg/injection, vehicle: saline
  T/C: 103 % of control
dose: 300.0 mg/kg/injection, vehicle: saline
  T/C: 102 % of control

## Clc1cccc(Cl)c1C(Nc1nncs1)Nc1nncs1
dose: 50.0 mg/kg/injection, vehicle: saline with Tween-80
  T/C: 106 % of control
dose: 100.0 mg/kg/injection, vehicle: saline with Tween-80
  T/C: 106 % of control

## COc1ccccc1/C=C/C(=O)c1ccccc(=O)c1O
dose: 9.38 mg/kg/injection, vehicle: Klucel (hydroxypropylcellulose) (HPC)
  T/C: 98 % of control
[1]
  T/C: 89 % of control
[2]
  T/C: 98 % of control
[10]
  T/C: 110 % of control
[11]
  T/C: 103 % of control

Reference: PubChem BioAssay AID280 (DTP/NCI, 2004)
